Publication PMC3764137, “Sulphamoylated 2-Methoxyestradiol Analogues Induce Apoptosis in Adenocarcinoma Cell Lines” (PLoS ONE, 2013)

What was measured:
Type in all cases: cell-based, human
HeLa cells [1] = assay: Cell number determination by crystal violet staining; settings: for cell growth: 24 h; for concentration that significantly inhibits HeLa proliferation: 24 h of exposure
Protocol: Crystal violet is a method used to determine the number of cells by staining the deoxyribonucleic acid (DNA). Gillies et al. (1986) used crystal violet to quantify cell number in monolayer cultures as a function of the absorbance of the dye taken up by the cells. A dose-dependent study was chosen with a concentration range of 0.1–25 μM since it was previously observed in our laboratory that this concentration series exerts antiproliferative activity in HeLa cells. Exponentially growing HeLa cells were seeded in 96 well tissue culture plates at a cell density of 5,000 cells per well. Cells were incubated at 37°C in a humidified atmosphere containing 5% CO2 for 24 h to allow for attachment. To establish the starting number of cells, a baseline determination was conducted before exposure. Subsequently, the medium was discarded and cells were exposed to the sulphamoylated 2ME2 analogues at a concentration series of 0.1–25 μM for the 24 h at 37°C. Vehicle-treated controls were also included. Cells were fixed with 100 µl of 1% gluteraldehyde (incubation for 15 min at room temperature). Gluteraldehyde was discarded and cells were stained using 100 µl 0.1% crystal violet (incubated at room temperature for 30 min). Excedent crystal violet was discarded and the 96 well plate was submersed under running water. Cells were solubilized using 200 µl 0.2% Triton X-100 and incubated at room temperature for 30 min. Solution (100 µl) was transferred to a new microtitre plate. Afterwards, the absorbance was determined at 570 nm using an ELx800 Universal Microplate Reader available from Bio-Tek Instruments Inc. (Vermont, United States of America).

HeLa cells [2] = assay: Cell morphology by transmission electron microscopy; settings: 24 h; for cell shrinkage (TEM): compared to vehicle-treated cells
Protocol: The in vitro influence of ESE-15-one, EMBS and ESE-16 on cell morphology was determined after exposure for 24 h using transmission electron microscopy (TEM). […] After each fixation step the samples were rinsed 3 times in 0.0075 M sodium phosphate buffer (pH 7.4). Samples were dehydrated using increasing concentrations of ethanol (30%, 50%, 70%, 90%, and 3×100%) and embedded in Quetol resin, sectioned with a microtome and placed on copper discs. Sections were contrasted with 4% aqueous uranyl acetate and Reynolds' lead citrate and viewed with a JOEL JEM 2100F transmission electron microscope (Electron Microscopy Unit, University of Pretoria, South Africa).

HeLa cells [3] = assay: Cytochrome c release (FlowCellect, flow cytometry); settings: 0.5 μM analogues (2-methoxyestradiol-bis-sulphamate 0.55 μM), 24 h
Protocol: (§1) This kit utilizes a unique set of buffers that selectively permeabilizes the […] without affecting the mitochondrial membrane. […] Cells (500,000) were seeded with an overnight attachment policy. After 24 h of exposure to 0.5 μM of the sulphamoylated 2ME2 analogues, cells were detached using trypsin and centrifuged at 13,000×g. Cells (500,000) were resuspended in PBS, centrifuged and resuspended in permeabilization buffer (according to supplier's instructions) for 10 min on ice. Subsequently cells were centrifuged, resuspended in 100 µl fixation buffer (according to supplier's instructions) for 20 min at room temperature, centrifuged again and resuspended in blocking buffer (150 µl). After another centrifugation step, cells were centrifuged and resuspended in blocking buffer (twice). Anti-cytochrome c-FITC (10 µl) was added to each sample and samples were incubated for 30 min at room temperature. Cells were centrifuged and blocking buffer (100 µl) was added. After centrifugation, blocking buffer (200 µl) was added to the samples for analysis via flow cytometry (FC500 System flow cytometer, Beckman Coulter South Africa (Pty) Ltd). Cells presenting with cytochrome c release were detected in the fluorescein isothiocyanate (FITC) channel (FL1) showing diffused green fluorescence. Data from at least 10 000 cells were analyzed by means of Cyflogic version 1.2.1 software (Pertu Therho, Turko, Finland).

MDA-MB-231 cells = assay: Cytochrome c release (FlowCellect, flow cytometry); settings: MDA-MB-231, 0.5 μM analogues (2-methoxyestradiol-bis-sulphamate 0.55 μM), 24 h
Protocol: as §1

caspase-8 = assay: FLICE/caspase 8 colorimetric assay; settings: 0.5 μM, 24 h
Protocol: (§2) Possible activation of caspase 3, -6 and -8 was investigated by means of caspase 3, caspase 6 and FLICE/caspase 8 colorimetric kits, respectively. Cells (1,000,000) were seeded with an overnight attachment policy. After 24 h of exposure to 0.5 μM of the sulphamoylated 2ME2 analogues, cells were detached with trypsin and centrifuged at 13,000× g. Cells (500,000) were resuspended in 50 µl of chilled cell lysis buffer and incubated on ice for 10 min. Cells were centrifuged at 10,000×g for a min. Supernatant was transferred to a fresh tube and put on ice. After determination of the protein concentration using the bicinchoninic acid (BCA) protein assay (Thermo Fisher Scientific, Johannesburg, South Africa), 100 µg protein/50 µl cell lysis buffer was mixed with 50 µl 2X reaction buffer (containing 10 mM Dithiothreitol (DTT)). Ac-Asp-Glu-Val-Asp-p-nitroanilide (Ac-DEVD-pNA) (5 µl of 4 mM) (caspase-3-specific substrate), or 5 µl 4 mM […] (Ac-VEID-pNA) (caspase-6-specific substrate), or 5 µl 4 mM Ac-Ile-Glu-Thr-Asp-p-nitroanilide (Ac-IETD-pNA) (caspase-8-specific substrate) was added and the mixture was incubated at 37°C for 120 min (200 µM final concentration). Absorbance was determined at 405 nm on the ELx800 Universal Microplate Reader available from Bio-Tek Instruments Inc. (Vermont, United States of America).

caspase 3 = assay: Caspase 3 colorimetric assay in HeLa cells; settings: 0.5 μM, 24 h
Protocol: as §2

[4] = 0.5 µM, compared to vehicle-treated cells

| Structure (SMILES) | cell growth (HeLa cells [1]; 0.1 µM) | cell growth (HeLa cells [1]; [4]) | cell growth (HeLa cells [1]; 5 µM and 10 µM) | concentration that significantly inhibits HeLa proliferation (HeLa cells [1]) | cell debris (TEM) (HeLa cells [2]) | vacuoles (TEM) (HeLa cells [2]) | cell shrinkage (TEM) (HeLa cells [2]) | Cytochrome c in cytoplasm (cells with cytochrome c release) (HeLa cells [3]) | Cytochrome c in cytoplasm (cells with cytochrome c release) (MDA-MB-231 cells) | caspase-8 activity increase compared to vehicle-treated cells (caspase-8) | caspase 3 activity compared to vehicle-treated cells (caspase 3) | apoptotic bodies (TEM) (HeLa cells [2]) |
| --- | --- | --- | --- | --- | --- | --- | --- | --- | --- | --- | --- | --- |
| CCc1cc2c(cc1OS(N)(=O)=O)CC[C@@H]1C2CC[C@]2(C)[C@@H](OS(N)(=O)=O)CC[C@@H]12 (stereo partly drawn) [EMBS, (8R, 13S, 14S, 17S)-2-ethyl-13-methyl-7,8,9, 11, 12,13, 14, 15, 16, 17-decahydro-6H-cyclopenta [a] phenanthrane-3, 17-diyl bis (sulphamate)] | 92.32% | 40.01% | slight decrease in cell growth | 0.5 µM | Cell debris was observed | vacuoles | shrunken | 21–23% | 21–23% | 2.6 fold | more than doubled |  |
| CCc1cc2c(cc1OS(N)(=O)=O)CC[C@@H]1[C@@H]2CC[C@]2(C)C(=O)C=C[C@@H]12 [ESE-15-one, 2-Ethyl-3-O-sulphamoyl-estra-1,3,5 (10) 15-tetraene-3-ol-17one] | 80.31% | 40.87% | slight decrease in cell growth | 0.5 µM |  | vacuoles | shrunken | 35% | 34% | 1.7 fold | more than doubled | Apoptotic bodies were observed |
